One assay concerns K562. Description: Growth inhibition of human K562 cells assessed as cell growth at 100 uM incubated for 48 hrs by sulforhodamine B assay relative to control. It is filed as functional. Conditions: K562, 48 h, read-out: Activity. For orientation: In SRB staining, fixed cells bind dye roughly in proportion to their protein.
Another assay has as its system A549. Kind of assay: Growth inhibition of human A549/ATCC cells assessed as cell growth at 0.005 uM incubated for 48 hrs by sulforhodamine B assay relative to control. Conditions: A549, 48 h, read-out: Activity. It is filed as functional.
Another assay concerns NCI-H226. Description: Growth inhibition of human NCI-H226 cells assessed as cell growth at 0.005 uM incubated for 48 hrs by sulforhodamine B assay relative to control. Type of assay: functional. Conditions: NCI-H226, 48 h, read-out: Activity.
Assay [1] relates to HCT-15. Kind of assay: Growth inhibition of human HCT15 cells assessed as cell growth at 0.005 uM incubated for 48 hrs by sulforhodamine B assay relative to control. Type of assay: functional. Conditions: HCT-15, 48 h, read-out: Activity.
Assay [2] concerns OVCAR-5. Description: Growth inhibition of human OVCAR5 cells assessed as cell growth at 0.005 uM incubated for 48 hrs by sulforhodamine B assay relative to control. It is filed as functional. The note with it: OVCAR-5, 48 h, read-out: Activity.
The test system of assay [3] is 786-0. Description: Growth inhibition of human 786-0 cells assessed as cell growth at 0.005 uM incubated for 48 hrs by sulforhodamine B assay relative to control. Type of assay: functional. Conditions: 786-0, 48 h, read-out: Activity.
The test system of a further assay is NCI-H23. Description: Growth inhibition of human NCI-H23 cells assessed as cell growth at 0.05 uM incubated for 48 hrs by sulforhodamine B assay relative to control. It is filed as functional. The note with it: NCI-H23, 48 h, read-out: Activity.
Another assay concerns NCI-H460. Description: Growth inhibition of human NCI-H460 cells assessed as cell growth at 0.05 uM incubated for 48 hrs by sulforhodamine B assay relative to control. Type of assay: functional. Conditions: NCI-H460, 48 h, read-out: Activity.
Assay [4] relates to HCT-15. Description: Growth inhibition of human HCT15 cells assessed as cell growth at 0.05 uM incubated for 48 hrs by sulforhodamine B assay relative to control. It is filed as functional. The note with it: HCT-15, 48 h, read-out: Activity.
In a further assay the test system is SNB-19. Kind of assay: Growth inhibition of human SNB19 cells assessed as cell growth at 0.05 uM incubated for 48 hrs by sulforhodamine B assay relative to control. Type of assay: functional. Conditions: SNB-19, 48 h, read-out: Activity.
The test system of a further assay is UACC-62. Description: Growth inhibition of human UACC62 cells assessed as cell growth at 0.05 uM incubated for 48 hrs by sulforhodamine B assay relative to control. Type of assay: functional. Conditions: UACC-62, 48 h, read-out: Activity.
The test system of a further assay is OVCAR-4. Kind of assay: Growth inhibition of human OVCAR4 cells assessed as cell growth at 0.05 uM incubated for 48 hrs by sulforhodamine B assay relative to control. Type of assay: functional. Conditions: OVCAR-4, 48 h, read-out: Activity.
Assay [5] has as its system OVCAR-5. Description: Growth inhibition of human OVCAR5 cells assessed as cell growth at 0.05 uM incubated for 48 hrs by sulforhodamine B assay relative to control. It is filed as functional. Conditions: OVCAR-5, 48 h, read-out: Activity.
The test system of assay [6] is BT-549. Description: Growth inhibition of human BT549 cells assessed as cell growth at 0.05 uM incubated for 48 hrs by sulforhodamine B assay relative to control. Type of assay: functional. Conditions: BT-549, 48 h, read-out: Activity.
Another assay concerns T47D. Description: Growth inhibition of human T47D cells assessed as cell growth at 0.05 uM incubated for 48 hrs by sulforhodamine B assay relative to control. Type of assay: functional. Conditions: read-out: Activity.
The test system of a further assay is HL-60(TB). Description: Growth inhibition of human HL-60(TB) cells assessed as cell growth at 0.5 uM incubated for 48 hrs by sulforhodamine B assay relative to control. It is filed as functional. The note with it: HL-60, 48 h, read-out: Activity.
Assay [7] deals with HOP-92. Kind of assay: Growth inhibition of human HOP92 cells assessed as cell growth at 0.5 uM incubated for 48 hrs by sulforhodamine B assay relative to control. Conditions: HOP-92, 48 h, read-out: Activity. Type of assay: functional.
In a further assay the test system is SK-MEL-2. Kind of assay: Growth inhibition of human SK-MEL-2 cells assessed as cell growth at 0.5 uM incubated for 48 hrs by sulforhodamine B assay relative to control. The note with it: SK-MEL-2, 48 h, read-out: Activity. Type of assay: functional.
For a further assay, the system named is SK-OV-3. Description: Growth inhibition of human SKOV3 cells assessed as cell growth at 0.5 uM incubated for 48 hrs by sulforhodamine B assay relative to control. Type of assay: functional. The note with it: SK-OV-3, 48 h, read-out: Activity.
In assay [8] the test system is 786-0. Kind of assay: Growth inhibition of human 786-0 cells assessed as cell growth at 0.5 uM incubated for 48 hrs by sulforhodamine B assay relative to control. Type of assay: functional. The note with it: 786-0, 48 h, read-out: Activity.
Assay [9] deals with BT-549. Description: Growth inhibition of human BT549 cells assessed as cell growth at 0.5 uM incubated for 48 hrs by sulforhodamine B assay relative to control. The note with it: BT-549, 48 h, read-out: Activity. Type of assay: functional.
The next assay has as its system MOLT-4. Description: Growth inhibition of human MOLT4 cells assessed as cell growth at 5 uM incubated for 48 hrs by sulforhodamine B assay relative to control. It is filed as functional. Conditions: MOLT-4, 48 h, read-out: Activity.
A further assay concerns SR. Kind of assay: Growth inhibition of human SR cells assessed as cell growth at 5 uM incubated for 48 hrs by sulforhodamine B assay relative to control. The note with it: read-out: Activity. It is filed as functional.
A further assay concerns HOP-62. Description: Growth inhibition of human HOP62 cells assessed as cell growth at 5 uM incubated for 48 hrs by sulforhodamine B assay relative to control. Type of assay: functional. Conditions: HOP-62, 48 h, read-out: Activity.
Another assay deals with HT-29. Kind of assay: Growth inhibition of human HT-29 cells assessed as cell growth at 5 uM incubated for 48 hrs by sulforhodamine B assay relative to control. Type of assay: functional. Conditions: HT-29, 48 h, read-out: Activity.
Assay [10] concerns OVCAR-5. Kind of assay: Growth inhibition of human OVCAR5 cells assessed as cell growth at 5 uM incubated for 48 hrs by sulforhodamine B assay relative to control. It is filed as functional. The note with it: OVCAR-5, 48 h, read-out: Activity.
The next assay has as its system CAKI-1. Description: Growth inhibition of human Caki1 cells assessed as cell growth at 5 uM incubated for 48 hrs by sulforhodamine B assay relative to control. It is filed as functional. The note with it: CAKI-1, 48 h, read-out: Activity.
Assay [11] relates to HOP-92. Description: Growth inhibition of human HOP92 cells assessed as cell growth at 50 uM incubated for 48 hrs by sulforhodamine B assay relative to control. Conditions: HOP-92, 48 h, read-out: Activity. Type of assay: functional.
In a further assay the test system is HCC 2998. Kind of assay: Growth inhibition of human HCC2998 cells assessed as cell growth at 50 uM incubated for 48 hrs by sulforhodamine B assay relative to control. Type of assay: functional. The note with it: HCC 2998, 48 h, read-out: Activity.
A further assay deals with SF-268. Kind of assay: Growth inhibition of human SF268 cells assessed as cell growth at 50 uM incubated for 48 hrs by sulforhodamine B assay relative to control. It is filed as functional. Conditions: SF-268, 48 h, read-out: Activity.
Another assay relates to DU-145. Description: Growth inhibition of human DU145 cells assessed as cell growth at 50 uM incubated for 48 hrs by sulforhodamine B assay relative to control. It is filed as functional. Conditions: DU-145, 48 h, read-out: Activity.
The next assay relates to Hs-578T. Kind of assay: Growth inhibition of human Hs 578T cells assessed as cell growth at 50 uM incubated for 48 hrs by sulforhodamine B assay relative to control. Conditions: read-out: Activity. Type of assay: functional.
For assay [12], the target named is Serine/threonine-protein kinase B-raf (Homo sapiens, UniProt P15056, V600E). Kind of assay: Inhibition of human BRAF V600E mutant using MEK1 as substrate in presence of [33P]ATP by Hotspot assay.
Serine/threonine-protein kinase B-raf, sequence (P15056 2-766 V600E limits assumed): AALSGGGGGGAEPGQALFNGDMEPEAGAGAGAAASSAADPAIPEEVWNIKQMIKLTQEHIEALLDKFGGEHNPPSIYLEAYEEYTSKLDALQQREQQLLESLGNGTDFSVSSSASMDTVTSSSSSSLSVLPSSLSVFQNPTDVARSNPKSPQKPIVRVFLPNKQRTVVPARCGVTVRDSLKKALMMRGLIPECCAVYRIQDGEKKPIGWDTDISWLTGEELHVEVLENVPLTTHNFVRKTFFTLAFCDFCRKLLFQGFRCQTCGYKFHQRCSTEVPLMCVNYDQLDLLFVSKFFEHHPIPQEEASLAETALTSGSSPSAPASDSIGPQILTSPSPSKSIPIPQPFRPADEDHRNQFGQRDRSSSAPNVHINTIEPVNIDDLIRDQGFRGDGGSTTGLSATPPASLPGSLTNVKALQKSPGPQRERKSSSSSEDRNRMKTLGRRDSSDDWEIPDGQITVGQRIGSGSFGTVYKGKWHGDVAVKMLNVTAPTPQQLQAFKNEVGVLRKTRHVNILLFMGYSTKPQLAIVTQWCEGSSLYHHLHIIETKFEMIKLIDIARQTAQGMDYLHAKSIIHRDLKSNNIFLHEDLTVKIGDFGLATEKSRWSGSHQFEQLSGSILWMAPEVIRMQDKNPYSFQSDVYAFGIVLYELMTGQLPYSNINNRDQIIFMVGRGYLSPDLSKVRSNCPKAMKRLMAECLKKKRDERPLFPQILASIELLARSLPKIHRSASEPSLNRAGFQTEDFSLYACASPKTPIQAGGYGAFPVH
The subject of assay [13] is BT-549. Description: Growth inhibition of human BT549 cells assessed as cell growth at 30 uM incubated for 48 hrs by sulforhodamine B assay relative to control. It is filed as functional. Conditions: BT-549, 48 h, read-out: Activity.

In general, IC50 refers to the point on the concentration scale where inhibition reaches its midpoint.

For `COc1cc2cc(Oc3ccc(NC(=O)Nc4cc(C(F)(F)F)cc(C(F)(F)F)c4)cc3)c(C)nc2cc1OC`, in the assay on K562, the growth at 100 µM was -61%.
Regarding `COc1cc2cc(Oc3ccc(NC(=O)Nc4cccc(C(F)(F)F)c4)cc3)c(C)nc2cc1OC`, the growth at 0.005 µM with A549 was 98%; with NCI-H226, 96%; with HCT-15 [1] it was 96%; in the assay on OVCAR-5 [2], 103%; in the assay on 786-0 [3], 98%. Also, the growth at 0.05 µM in the assay with NCI-H23 is 99%; with NCI-H460 it was 106%; with HCT-15 [4], 94%; with SNB-19, 91%; with UACC-62, 94%; in the assay on OVCAR-4, 95%. The values for the growth at 0.05 µM in the assay with OVCAR-5 [5], in the assay with BT-549 [6] and in the assay with T47D were 103%, 84% and 101%, respectively. Besides, the growth at 0.5 µM in the assay with HL-60(TB) is 112%; in the assay on HOP-92 [7] it was 90%; with SK-MEL-2 it was 108%; in the assay on SK-OV-3, 101%; in the assay on 786-0 [8] it was 95%; with BT-549 [9], 86%. The growth at 5 µM in the assay on MOLT-4 is 4%; in the assay on SR, -19%; in the assay with HOP-62, 25%; with HT-29, 11%; in the assay with OVCAR-5 [10] it was 31%; in the assay with CAKI-1 it was -7%. Moreover, the growth at 50 µM is -74% with HOP-92 [11]; 4% with HCC 2998; -32% in the assay with SF-268; -32% in the assay on DU-145; -41% in the assay with Hs-578T.
For `COc1cc2cc(Oc3ccc(NC(=O)Nc4ccc(Cl)c(C(F)(F)F)c4)cc3)c(C)nc2cc1OC`, in assay [12], the half-maximal inhibitory concentration (IC50) amounted to 260 nM. For the same molecule, the growth at 30 µM in the assay with BT-549 [13] was -65%.

The values above are taken from ChEMBL document CHEMBL3994622, “Design and synthesis of new RAF kinase-inhibiting antiproliferative quinoline derivatives. Part 2: Diarylurea derivatives” (Eur J Med Chem, 2017).
